The assay deals with SARS-CoV2 original Wuhan strain, Alpha, Delta and Omicron viruses. Description: Replication of SARS-CoV-2 circulating forms in pulmonary A549-ACE2 cells. It is filed as cell-based. As to conditions: Severe acute respiratory syndrome coronavirus 2, read-out: IC50, block of viral replication of all variants.

From patent US20260158015A1 (Universite De Bordeaux, priority 2021, published 2026) come the findings set out here.

As a reminder, the IC50 is the point on the concentration scale where inhibition reaches its midpoint.

Regarding `O=S(=O)(c1ccccc1)n1c(-c2cncc(-c3cc4cc(OCc5ccccc5)ccc4n3S(=O)(=O)c3ccccc3)c2)cc2cc(OCc3ccccc3)ccc21` [AB-00011778], the IC50 lay within 500 to 1000 nM.
